# Assay results: PubChem BioAssay (NCI)
#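 Values below derive from 48-hour exposures of cells grown in 96-well plates, with endpoints linearly interpolated between the two concentrations bracketing the appropriate inhibition level. TGI: concentration producing complete growth inhibition.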 Where a SMILES comes first, the peptide text is derived from it.
# Assays:
# Assay in all cases: NCI tumour cell line growth inhibition, 48 h
# [1] = test system: OVCAR-8 ovarian
# [2] = test system: MALME-3M melanoma
# [3] = test system: SK-MEL-2 melanoma
# [4] = test system: TK-10 renal
# [5] = test system: K-562 leukemia
# [6] = test system: SW-620 colon
# [7] = test system: EKVX NSCLC
# [8] = test system: NCI-H460 lung
# [9] = test system: SNB-19 CNS
# [10] = test system: A549 NSCLC
# [11] = test system: NCI-H522 lung
# [12] = test system: NCI/ADR-RES ovarian
# [13] = test system: M14 melanoma
# [14] = test system: BT-549 breast
# [15] = test system: A498 renal
# [16] = test system: RXF 393 renal
# [17] = test system: UACC-62 melanoma
# [18] = test system: HCC-2998 colon
SMILES,TGI [1],TGI [2],TGI [3],TGI [4],TGI [5],TGI [6],TGI [7],TGI [8],TGI [9],TGI [10],TGI [11],TGI [12],TGI [13],TGI [14],TGI [15],TGI [16],TGI [17],TGI [18]
COc1cc(S(=O)(=O)Nc2nc(-c3ccc(N)cc3)cs2)ccc1Cl,> 100 µM,> 100 µM,> 100 µM,> 100 µM,> 100 µM,> 100 µM,> 100 µM,> 100 µM,> 100 µM,> 100 µM,> 100 µM,> 100 µM,> 100 µM,> 100 µM,> 100 µM,> 100 µM,> 100 µM,–
NNc1ccccc1Cl,> 100 µM,> 100 µM,> 100 µM,> 100 µM,> 100 µM,> 100 µM,> 100 µM,> 100 µM,> 100 µM,> 100 µM,> 100 µM,> 100 µM,> 100 µM,> 100 µM,> 100 µM,> 100 µM,> 100 µM,> 100 µM
COc1ccc([C@H]2C=C(c3cc(F)c(Cl)cc3Cl)NC(=S)N2)cc1,> 100 µM,> 100 µM,58.4 µM,> 100 µM,> 100 µM,> 100 µM,> 100 µM,54.3 µM,> 100 µM,> 100 µM,> 100 µM,> 100 µM,> 100 µM,> 100 µM,79.2 µM,79.9 µM,> 100 µM,70.5 µM
CCN(CC)CCn1c2cc3c(cc2c(=O)c2cccnc21)OCO3,> 10 µM,> 10 µM,> 10 µM,> 10 µM,–,> 10 µM,> 10 µM,7.79 µM,> 10 µM,> 10 µM,> 10 µM,> 10 µM,> 10 µM,> 10 µM,> 10 µM,> 10 µM,> 10 µM,> 10 µM
Cc1cc(S(=O)(=O)n2ccnc2Oc2ccccc2)c(SSc2cc(Cl)c(C)cc2S(=O)(=O)n2ccnc2Oc2ccccc2)cc1Cl,> 100 µM,> 100 µM,> 100 µM,> 100 µM,> 100 µM,> 100 µM,> 100 µM,> 100 µM,> 100 µM,> 100 µM,> 100 µM,> 100 µM,> 100 µM,> 100 µM,> 100 µM,> 100 µM,> 100 µM,> 100 µM
COc1ccc2c(c1)CC[C@@H]1[C@@H]2CC[C@]2(C)C(=O)/C(=C/c3ccncc3)C[C@@H]12,> 100 µM,77.3 µM,60.1 µM,> 100 µM,> 100 µM,86 µM,> 100 µM,> 100 µM,> 100 µM,> 100 µM,92.1 µM,> 100 µM,> 100 µM,> 100 µM,87.6 µM,46.7 µM,> 100 µM,75.4 µM
CC1=C(C#N)C2C(=C(N)Oc3ccccc32)C(N)=N1 (stereo not given),56.8 µM,35.5 µM,> 100 µM,47.5 µM,90.8 µM,> 100 µM,73.8 µM,–,56.3 µM,> 100 µM,36.2 µM,45.6 µM,64.6 µM,93.5 µM,74.2 µM,> 100 µM,48.4 µM,69.8 µM
COc1ccc(OC)c(-c2nc3ccccc3c(=O)[nH]2)c1,> 100 µM,> 100 µM,> 100 µM,–,> 100 µM,> 100 µM,> 100 µM,> 100 µM,> 100 µM,> 100 µM,–,> 100 µM,> 100 µM,> 100 µM,> 100 µM,> 100 µM,> 100 µM,> 100 µM
CC(=O)c1nc2ccccc2n1CC(=O)c1ccc(Cl)cc1,85.8 µM,22.6 µM,78.1 µM,> 100 µM,> 100 µM,44 µM,> 100 µM,22.5 µM,> 100 µM,32.4 µM,23 µM,22.2 µM,> 100 µM,> 100 µM,> 100 µM,98.5 µM,27.8 µM,–
O=C(Nc1nnc(-c2c(Cl)c(Cl)c(Cl)c(Cl)c2-c2nc3cc(C(=O)c4ccccc4)ccc3[nH]2)o1)c1ccccc1,> 100 µM,–,51.4 µM,50.7 µM,> 100 µM,> 100 µM,38.7 µM,–,34.7 µM,31.9 µM,–,33.3 µM,34.4 µM,73.4 µM,49.6 µM,39.1 µM,–,–
CN1C(=O)c2c(c3c4ccccc4n(C4OC(CO)C(O)C(O)C4O)c3c3[nH]c4ccccc4c23)C1=O (stereo not given),4.19 µM,1.44 µM,4.72 µM,13.7 µM,> 100 µM,16.2 µM,9.09 µM,12.1 µM,8.42 µM,29.6 µM,1.66 µM,49.9 µM,6.13 µM,33.8 µM,3.26 µM,8.96 µM,4.09 µM,7.72 µM
CC(=O)NC(CS)C(=O)NC(CO)C(=O)NC(CO)C(=O)NC(Cc1c[nH]c2ccccc12)C(=O)N1CCCC1C(=O)NC(CO)C(=O)NC(Cc1c[nH]c2ccccc12)C(=O)NC(Cc1c[nH]cn1)C(=O)NC(CO)C(=O)NC(Cc1c[nH]c2ccccc12)C(=O)NCC(=O)NCC(=O)NC(CC(=O)O)C(=O)NC(CCC(N)=O)C(=O)NC(CCCCN)C(=O)NC(Cc1ccccc1)C(=O)NC(CCCNC(=N)N)C(=O)NC(CCCCN)C(N)=O (stereo not given) (Ac-CSSWPSWHSWGGDQKFRK-NH2; configuration not given here),> 25 µM,> 25 µM,> 25 µM,> 25 µM,> 25 µM,> 25 µM,> 25 µM,> 25 µM,> 25 µM,> 25 µM,> 25 µM,> 25 µM,> 25 µM,> 25 µM,> 25 µM,> 25 µM,> 25 µM,–
COc1ccc(C2CC(c3ccc4ccccc4c3O)=NN2C(C)=O)cc1OC (stereo not given),> 100 µM,> 100 µM,> 100 µM,> 100 µM,> 100 µM,> 100 µM,–,> 100 µM,–,> 100 µM,> 100 µM,> 100 µM,> 100 µM,> 100 µM,> 100 µM,> 100 µM,> 100 µM,> 100 µM
